Data published in patent US11414450B1, “Aminoglycosides and uses thereof” (REVAGENIX, INC., priority 2017, dated 2022).
In brackets after ≈: the same amount, converted by molar mass.

Key:
[1] = system: E. coli isogenic strain empty vector; experiment: MIC broth microdilution, E. coli isogenic strain, empty vector; assay type: cell-based; conditions: for Geometric Mean MIC values, E. coli isogenic strains, empty vector: Table 2; for MIC: Escherichia coli, read-out: Geometric Mean MIC values, E. coli isogenic strains empty vector
Method: (§1) Minimum inhibitory concentrations for the example compounds herein are determined by the broth microdilution method in accordance with the Clinical and Laboratory Standards Institute (CLSI) guidelines. In brief, organism suspensions are adjusted to a 0.5 McFarland standard to yield a final inoculum between 3×10^5 and 7×10^5 colony-forming units (CFU)/mL. Compound dilutions and inocula are made in sterile, cation adjusted Mueller-Hinton Broth (Beckton Dickinson). The inoculum is prepared by suspension of a colony from an agar plate that is prepared the previous day. Bacteria are suspended in sterile saline and added to each assay plate to obtain a final concentration of 5×10^5 CFU/mL. An inoculum volume of 100 μL is added to wells containing 100 μL of broth with 2-fold serial dilutions of the compound. All inoculated microdilution trays are incubated in ambient air at 35° C. for 18-24 hours. Following incubation, the lowest concentration of the compound that prevents visible growth (OD 600 nm<0.05) is recorded as the MIC. […] Performance of the assay is monitored by the use of laboratory quality-control strains and a compound with a defined MIC spectrum (such as levofloxacin), in accordance with CLSI guidelines. Compounds are tested against multiple microbiologic panels. Panels include: 1) a multi-species primary screening panel that includes multiple defined AG-R mechanisms; 2) a panel of isogenic strains carrying different common mechanisms of AG-R that allows characterization of the SAR for AMEs, RMTs, and entry and efflux resistance mechanisms; and 3) panels of recent clinical isolates selected from Phase 3 studies and ongoing global surveillance.

E. coli efflux parent = experiment: MIC broth microdilution, E. coli efflux parent strain; assay type: cell-based; conditions: for MIC: Escherichia coli, E. coli efflux parent strain, read-out: Geometric Mean MIC values, E. coli efflux parent
Method: as §1

[2] = system: E. coli Δefflux (tolC efflux pump knocked-out); experiment: MIC broth microdilution, E. coli Δefflux strain (tolC knocked out); assay type: cell-based
Method: as §1

E. coli ATCC 25922 = experiment: Minimum inhibitory concentration (broth microdilution, CLSI), E. coli ATCC 25922; assay type: cell-based; conditions: for MIC: Escherichia coli, ATCC25922, E. coli ATCC 25922, broth microdilution, read-out: Geometric Mean MIC values, E. coli ATCC 25922
Method: as §1

[3] = system: E. coli isogenic strain aph(3′)-II; experiment: MIC broth microdilution, E. coli isogenic strain aph(3′)-II; assay type: cell-based; conditions: for Geometric Mean MIC values, E. coli isogenic strains, aph(3′)-II: Table 2; for MIC: Escherichia coli, read-out: Geometric Mean MIC values, E. coli isogenic strains aph(3′)-II
Method: as §1

[4] = system: E. coli isogenic strain aac(6′)-Ib; experiment: MIC broth microdilution, E. coli isogenic strain aac(6′)-Ib; assay type: cell-based; conditions: for Geometric Mean MIC values, E. coli isogenic strains, aac(6′)-Ib: Table 2; for MIC: Escherichia coli, read-out: Geometric Mean MIC values, E. coli isogenic strains aac(6′)-Ib
Method: as §1

[5] = system: E. coli isogenic strain ant(4′)-Ia; experiment: MIC broth microdilution, E. coli isogenic strain ant(4′)-Ia; assay type: cell-based; conditions: for Geometric Mean MIC values, E. coli isogenic strains, ant(4′)-Ia: Table 2
Method: as §1

[6] = system: E. coli isogenic strain nmpA; experiment: MIC broth microdilution, E. coli isogenic strain nmpA; assay type: cell-based; conditions: for Geometric Mean MIC values, E. coli isogenic strains, nmpA: Table 2; for MIC: Escherichia coli, read-out: Geometric Mean MIC values, E. coli isogenic strains npmA
Method: as §1

[7] = system: E. coli isogenic strain aph(3′)-Ia; experiment: MIC broth microdilution, E. coli isogenic strain aph(3′)-Ia; assay type: cell-based; conditions: for Geometric Mean MIC values, E. coli isogenic strains, aph(3′)-Ia: Table 2, aph(3′)-Ia has activity at both the 3′-hydroxy and 5″-hydroxy positions; for MIC: Escherichia coli, read-out: Geometric Mean MIC values, E. coli isogenic strains aph(3′)-Ia
Method: as §1

[8] = system: E. coli isogenic strain armA; experiment: MIC broth microdilution, E. coli isogenic strain armA; assay type: cell-based; conditions: for Geometric Mean MIC values, E. coli isogenic strains, armA: Table 2; for MIC: Escherichia coli, read-out: Geometric Mean MIC values, E. coli isogenic strains armA
Method: as §1

[9] = system: P. aeruginosa Δefflux (MexAB-OprM, MexCD-OprJ, MexEF-OprN knocked out); experiment: MIC broth microdilution, P. aeruginosa Δefflux strain; assay type: cell-based; conditions: Table 1, MexEF-OprN efflux pumps knocked out
Method: as §1

[10] = system: P. aeruginosa efflux parent; experiment: MIC broth microdilution, P. aeruginosa efflux parent strain; assay type: cell-based; conditions: Table 1; geometric mean
Method: as §1

P. aeruginosa ATCC 27853 = experiment: MIC broth microdilution, P. aeruginosa ATCC 27853; assay type: cell-based; conditions: Table 1; geometric mean
Method: as §1

translation = experiment: Translation Inhibition Assay; assay type: biochemical; conditions: Table 1
Excerpt: Biological Example 2: Translation Inhibition Assay

SMILES | Geometric Mean MIC values, E. coli isogenic strains, empty vector [1] [µg/mL] | Geometric Mean MIC values, E. coli efflux parent (E. coli efflux parent; Table 2) [µg/mL] | Geometric Mean MIC values, E. coli Δefflux ([2]; Table 2) [µg/mL] | Geometric Mean MIC values, E. coli ATCC 25922 (E. coli ATCC 25922; Table 2) [µg/mL] | Geometric Mean MIC values, E. coli isogenic strains, aph(3′)-II [3] [µg/mL] | Geometric Mean MIC values, E. coli isogenic strains, aac(6′)-Ib [4] [µg/mL] | Geometric Mean MIC values, E. coli isogenic strains, nmpA [6] [µg/mL] | Geometric Mean MIC values, E. coli isogenic strains, aph(3′)-Ia [7] [µg/mL] | Geometric Mean MIC values, E. coli isogenic strains, armA [8] [µg/mL] | Geometric Mean MIC values, P. aeruginosa Δefflux [9] [µg/mL] | Geometric Mean MIC values, E. coli efflux parent (E. coli efflux parent; Table 1) [µg/mL] | Geometric Mean MIC values, E. coli Δefflux ([2]; Table 1) [µg/mL] | Geometric Mean MIC values, P. aeruginosa efflux parent [10] [µg/mL] | Geometric Mean MIC values, E. coli ATCC 25922 (E. coli ATCC 25922; Table 1) [µg/mL] | Geometric Mean MIC values, P. aeruginosa ATCC 27853 (P. aeruginosa ATCC 27853) [µg/mL] | IC50 (translation) [nM] | further results
NCC1OC(OC2C(CO)OC(OC3C(O)C(N)CC(N)C3OC3OC(CN)C(O)C(F)(F)C3N)C2O)C(N)C(O)C1O (stereo not shown) [drawing 870] | 4 | 4 | 2 | 5 | 4 | >64 | >64 | >64 | 32 | – | – | – | – | – | – | – | Geometric Mean MIC values, E. coli isogenic strains, ant(4′)-Ia [5]: 8 µg/mL
CC(N)C1CCC(N)C(OC2C(N)CC(N)C(O)C2OC2OC(CO)C(OC3OC(CN)C(O)C(O)C3N)C2O)O1 (stereo not shown) [drawing 858] | 1 | 1 | 1 | 2 | 1 | 1 | >64 | >64 | 1.4 | – | – | – | – | – | – | – | Geometric Mean MIC values, E. coli isogenic strains, ant(4′)-Ia [5]: 0.5 µg/mL
NC[C@@H]1CC[C@@H](N)[C@@H](O[C@@H]2[C@@H](N)[C@H](O)[C@@H](N)[C@H](O)[C@H]2O[C@@H]2O[C@H](CO)[C@@H](O[C@H]3O[C@@H](CN)[C@@H](O)[C@H](O)[C@H]3N)[C@H]2O)O1 [drawing 888] | – | – | – | – | – | – | – | – | – | – | – | – | – | – | – | – | MIC [1]: 0.5 µg/mL (≈ 0.835 µM); MIC (E. coli efflux parent): 0.5 µg/mL (≈ 0.835 µM); Geometric Mean MIC values, E. coli Δefflux ([2]; E. coli Δefflux): 0.5 µg/mL; MIC (E. coli ATCC 25922): 1 µg/mL (≈ 1.67 µM); MIC [3]: 0.5 µg/mL (≈ 0.835 µM); MIC [4]: 16 µg/mL (≈ 26.7 µM); MIC ([5]; Escherichia coli, read-out: Geometric Mean MIC values, E. coli isogenic strains ant(4′)-Ia): 0.5 µg/mL (≈ 0.835 µM); MIC [6]: > 64 µg/mL; MIC [7]: > 64 µg/mL; MIC [8]: 4 µg/mL (≈ 6.68 µM)
CCC(N)C1CCC(N)C(OC2C(N)CC(N)C(O)C2OC2OC(CO)C(OC3OC(CN)C(O)C(O)C3N)C2O)O1 (stereo not shown) [drawing 861] | 1 | 2 | 1 | 1.4 | 0.5 | 1 | >64 | >64 | 5.7 | – | – | – | – | – | – | – | Geometric Mean MIC values, E. coli isogenic strains, ant(4′)-Ia [5]: 0.5 µg/mL
CCC(N)C1CCC(N)C(OC2C(N)CC(N)C(O)C2OC2OC(CO)C(OC3OC(CN)C(O)C(O)C3N)C2O)O1 (stereo not shown) [drawing 851] | – | – | – | – | – | – | – | – | – | 0.5 | 2 | 1 | 2 | 2 | 2 | 32 | –
NCC1OC(OC2C(CO)OC(OC3C(O)C(N)CC(N)C3OC3OC(CN)C(O)C(F)C3N)C2O)C(N)C(O)C1O (stereo not shown) [drawing 853] | – | – | – | – | – | – | – | – | – | 0.5 | 2 | 1 | 2 | 2 | 1 | 10 | –
CC(N)C1CCC(N)C(OC2C(N)CC(N)C(O)C2OC2OC(CO)C(OC3OC(CN)C(O)C(O)C3N)C2O)O1 (stereo not shown) [drawing 850] | – | – | – | – | – | – | – | – | – | 0.5 | 1 | 1 | 4 | 2.5 | 2 | 14 | –
NCC1CCC(N)C(OC2C(N)CC(N)C(O)C2OC2OC(CO)C(OC3OC(CN)C(O)C(O)C3N)C2O)O1 (stereo not shown) [drawing 848] | – | – | – | – | – | – | – | – | – | 0.5 | 1.4 | 1.4 | 0.77 | 1.1 | 0.57 | 13 | –
NCC1OC(OC2C(CO)OC(OC3C(O)C(N)CC(N)C3OC3OC(CN)C(O)C(F)(F)C3N)C2O)C(N)C(O)C1O (stereo not shown) [drawing 854] | – | – | – | – | – | – | – | – | – | 1 | 4 | 2 | 8 | 4 | 4 | 63 | –
CC(N)C1CCC(N)C(OC2C(N)CC(N)C(O)C2OC2OC(CO)C(OC3OC(CN)C(O)C(O)C3N)C2O)O1 (stereo not shown) [drawing 849] | – | – | – | – | – | – | – | – | – | 0.5 | 1 | 1 | 1 | 1.6 | 0.71 | 14 | –
CO[C@@H]1[C@@H](O[C@@H]2O[C@H](CO)[C@@H](O[C@H]3O[C@@H](CN)[C@@H](O)[C@H](O)[C@H]3N)[C@H]2O)[C@H](O[C@H]2O[C@H](CN)CC[C@H]2N)[C@@H](N)C[C@H]1N [drawing 889] | – | – | – | – | – | – | – | – | – | – | – | – | – | – | – | – | MIC [1]: 0.5 µg/mL (≈ 0.838 µM); MIC (E. coli efflux parent): 0.5 µg/mL (≈ 0.838 µM); Geometric Mean MIC values, E. coli Δefflux ([2]; E. coli Δefflux): 0.5 µg/mL; MIC (E. coli ATCC 25922): 1 µg/mL (≈ 1.68 µM); MIC [3]: 0.5 µg/mL (≈ 0.838 µM); MIC [4]: 8 µg/mL (≈ 13.4 µM); MIC [6]: > 32 µg/mL; MIC [7]: 16 µg/mL (≈ 26.8 µM); MIC [8]: 0.5 µg/mL (≈ 0.838 µM)
NCC1OC(OC2C(CO)OC(OC3C(O)C(N)CC(N)C3OC3OC(C4(N)CC4)CCC3N)C2O)C(N)C(O)C1O (stereo not shown) [drawing 859] | 0.5 | 1 | 1 | 1 | 1 | 1 | 32 | >32 | 4 | – | – | – | – | – | – | – | –
